Results published in ChEMBL document CHEMBL5726842, “Bicyclic azaheterocyclobenzylamines as PI3K inhibitors” (2019).

Target: T1, Phosphatidylinositol 4,5-bisphosphate 3-kinase catalytic subunit delta isoform (Homo sapiens, UniProt O00329)
T1 sequence (O00329 whole entry): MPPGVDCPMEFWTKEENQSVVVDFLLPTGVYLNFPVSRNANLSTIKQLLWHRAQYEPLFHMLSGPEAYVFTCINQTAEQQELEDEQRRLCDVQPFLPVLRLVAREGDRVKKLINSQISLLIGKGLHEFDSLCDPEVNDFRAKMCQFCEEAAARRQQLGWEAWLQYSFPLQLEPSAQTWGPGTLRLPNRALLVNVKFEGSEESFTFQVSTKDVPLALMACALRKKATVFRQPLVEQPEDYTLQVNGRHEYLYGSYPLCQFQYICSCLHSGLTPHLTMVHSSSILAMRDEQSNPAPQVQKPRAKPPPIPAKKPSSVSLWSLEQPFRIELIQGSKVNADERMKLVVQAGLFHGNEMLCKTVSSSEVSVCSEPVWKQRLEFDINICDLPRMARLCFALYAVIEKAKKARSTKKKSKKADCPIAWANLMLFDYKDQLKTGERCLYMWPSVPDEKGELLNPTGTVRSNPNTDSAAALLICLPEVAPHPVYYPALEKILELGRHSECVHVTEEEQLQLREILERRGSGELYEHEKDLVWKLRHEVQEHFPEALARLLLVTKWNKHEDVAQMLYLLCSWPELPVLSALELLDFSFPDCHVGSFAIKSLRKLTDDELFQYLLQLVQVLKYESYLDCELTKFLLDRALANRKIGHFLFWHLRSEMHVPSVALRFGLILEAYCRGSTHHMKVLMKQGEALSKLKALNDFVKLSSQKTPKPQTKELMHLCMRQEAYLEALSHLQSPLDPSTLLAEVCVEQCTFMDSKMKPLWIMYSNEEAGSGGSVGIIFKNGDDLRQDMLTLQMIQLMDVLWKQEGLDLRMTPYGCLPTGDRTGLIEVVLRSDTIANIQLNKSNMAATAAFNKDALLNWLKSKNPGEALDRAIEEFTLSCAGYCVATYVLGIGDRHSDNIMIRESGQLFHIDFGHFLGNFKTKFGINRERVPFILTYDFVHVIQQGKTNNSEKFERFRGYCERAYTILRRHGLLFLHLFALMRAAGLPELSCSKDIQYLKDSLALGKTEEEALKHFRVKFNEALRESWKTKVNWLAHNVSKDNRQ
Assay: PI3Kdelta Scintillation Proximity Assay: [γ-33P]ATP (10mCi/mL) was purchased from Perkin-Elmer (Waltham, Mass.). Lipid kinase substrate, D-myo-Phosphatidylinositol 4,5-bisphosphate (PtdIns(4,5)P2)D (+)-sn-1,2-di-O-octanoylglyceryl, 3-O-phospho linked (PIP2), CAS 204858-53-7, was purchased from Echelon Biosciences (Salt Lake City, Utah). PI3Kδ (p110δ/p85α) was purchased from Millipore (Bedford, Mass.). ATP, MgCl2, DTT, EDTA, MOPS and CHAPS were purchased from Sigma-Aldrich (St. Louis, Mo.). Wheat Germ Agglutinin (WGA) YSi SPA Scintillation Beads was purchased from GE healthcare life sciences (Piscataway, N.J.).The kinase reaction was conducted in polystyrene 384-well matrix white plate from Thermo Fisher Scientific in a final volume of 25 μL. Inhibitors were first diluted serially in DMSO and added to the plate wells before the addition of other reaction components. The final concentration of DMSO in the assay was 0.5%. The PI3K assays were carried out at room temperature in 20 mM MOPS, pH 6.7, 10 mM MgCl2, 5 mM DTT and CHAPS 0.03%.Reactions were initiated by the addition of ATP, the final reaction mixture consisted of 20 μM PIP2, 20 μM ATP, 0.2 μCi [γ-33P] ATP, 4 nM PI3Kδ. Reactions were incubated for 210 min and terminated by the addition of 40 μL SPA beads suspended in quench buffer: 150 mM potassium phosphate pH 8.0, 20% glycerol. 25 mM EDTA, 400 μM ATP. […]

- IC50: < 100 nM
Structure (SMILES): Cc1nn(C(C)c2cc(Cl)c(F)c3c2O[C@H](C)CN(C2CC(C(=O)O)C2)C3)c2ncnc(N)c12 (stereo partly specified)
